Experimental data: patent publication US20020081572A1, “Three dimensional structure of paramyxovirus hemagglutinin neuraminidases and use thereof” (priority 2000, published 2002)

Experiments:
Influenza Neuraminidase = assay: Influenza neuraminidase fluorimetric assay; type: biochemical, influenza virus; details: 4-methylumbelliferyl-alpha-D-acetylneuraminic acid substrate 75 uM, pH 6.5, 37 C
[1] = target: Sendai Virus Hemagglutinin-Neuraminidase (Sendai virus, UniProt P03425); assay: Paramyxovirus hemagglutinin-neuraminidase fluorimetric assay; type: biochemical
Sendai Virus Hemagglutinin-Neuraminidase, sequence (P03425 whole entry): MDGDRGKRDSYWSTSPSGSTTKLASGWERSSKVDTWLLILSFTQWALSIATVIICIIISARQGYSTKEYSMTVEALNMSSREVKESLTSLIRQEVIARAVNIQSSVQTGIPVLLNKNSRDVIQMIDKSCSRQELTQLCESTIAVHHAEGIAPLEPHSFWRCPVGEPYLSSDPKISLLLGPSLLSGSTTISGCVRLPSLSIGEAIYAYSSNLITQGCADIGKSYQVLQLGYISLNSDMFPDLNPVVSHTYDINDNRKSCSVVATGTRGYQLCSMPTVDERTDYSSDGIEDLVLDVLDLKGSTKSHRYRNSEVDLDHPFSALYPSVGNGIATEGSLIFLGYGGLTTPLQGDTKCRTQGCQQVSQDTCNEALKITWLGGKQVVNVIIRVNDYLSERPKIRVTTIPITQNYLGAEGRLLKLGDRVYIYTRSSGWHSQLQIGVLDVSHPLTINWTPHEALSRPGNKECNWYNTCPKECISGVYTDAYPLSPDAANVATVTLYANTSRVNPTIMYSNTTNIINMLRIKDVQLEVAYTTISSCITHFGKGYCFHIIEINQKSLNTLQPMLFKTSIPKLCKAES

| SMILES | IC50 (Influenza Neuraminidase) | IC50 [1] |
| --- | --- | --- |
| CCC(CC)C(NC(C)=O)C1C(NC(=N)N)CC(C(=O)O)C1O (single isomer, unassigned; (-)) [Compound 2, (-)-t-e-[(1-Acetylamino)(2-ethyl)butyl]-c-4-(aminoiminomethyl)amino-t-2-hydroxycyclopentan-r-1-carboxylic acid] | < 50 nM | > 300 µM |
| CCN(CC)C(=O)C(NC(C)=O)C1CC(C(=O)O)CC1NC(=N)N (stereo not drawn) [Compound 1, alpha-3-[(Acetylamino)(diethylaminocarbonyl)methyl]-beta-4-[(aminoiminomethyl)amino]cyclopentane-1-carboxylic acid] | < 50 nM | > 300 µM |
| CCC(CC)C(NC(C)=O)C1CC(C(=O)O)CC1NC(=N)N (single isomer, unassigned; (-)) [Compound 3, (-)t-3-[(1-Acetylamino-2-ethyl)butyl]-c-4-(aminoiminomethyl)aminocyclopentan-r-1-carboxylic acid] | < 50 nM | > 300 µM |
